Measurements: the RepoRT retention time repository (doi:10.1016/j.foodchem.2018.11.056)

Experiment: RP, Thermo Scientific Hypersil GOLD aQ, 100 × 2.1 mm, 1.9 µm, 30 °C, 0.3 mL/min, estimated dead time 0.73 min; A: water + 0.1% formic acid; B: methanol + 0.1% formic acid + 4 mM ammonium formate; gradient (min/%B) 0/0 1/0 8/100 10/100
Conditions: stereoisomer not certain

Row | SMILES | LC retention time
1 | CC1CCC2C(C)(C)C(O)CCC2(C)C12Cc1c(O)cc3c(c1O2)CNC3=O (stereo not given) | 7.51 min
2 | CC1CCCC(O)CCCCCc2cc(O)cc(O)c2C(=O)O1 (stereo not given) | 6.88 min
3 | COc1cc2c(c3oc(=O)c4c(c13)CCOC4=O)C1C=COC1O2 (stereo not given) | 5.89 min
4 | CC(=O)OCC12C(C=C(C)C(=O)C1O)OC1C(O)CC2(C)C12CO2 (stereo not given) | 5.25 min
5 | CC1CCCC(=O)CCCCCc2cc(O)cc(O)c2C(=O)O1 (stereo not given) | 7.1 min
6 | CC(C)C1(NC(=O)C2CC3c4cccc5[nH]cc(c45)CC3N(C)C2)OC2(O)C3CCCN3C(=O)C(Cc3ccccc3)N2C1=O (stereo not given) | 6.46 min
7 | CC1=CC2OC3C(OC4OC(CO)C(O)C(O)C4O)CC(C)(C34CO4)C2(CO)C(O)C1=O (stereo not given) | 4.29 min
8 | CC(C)CC1C(=O)N2CCCC2C2(O)OC(C)(NC(=O)C3C=C4c5cccc6[nH]cc(c56)CC4N(C)C3)C(=O)N12 (stereo not given) | 6.11 min
9 | COc1cc2c(c3oc(=O)c4c(c13)CCC4=O)C1C=COC1O2 (stereo not given) | 6.26 min
10 | CCCCC(C)C(OC(=O)CC(CC(=O)O)C(=O)O)C(CC(C)CC(O)CCCCC(O)CC(O)C(C)N)OC(=O)CC(CC(=O)O)C(=O)O (stereo not given) | 6.81 min
11 | CC1Cc2ccc(C(=O)NC(Cc3ccccc3)C(=O)O)c(O)c2C(=O)O1 (stereo not given) | 6.78 min
12 | COc1cc2c(c3oc(=O)c4c(c13)CCC4=O)C1CCOC1O2 (stereo not given) | 6.11 min
13 | CN1C(=O)C23CC4=CC=CC(O)C4N2C(=O)C1(CO)SS3 (stereo not given) | 5.48 min
14 | CC(C)CC1C(=O)N2CCCC2C2(O)OC(NC(=O)C3C=C4c5cccc6[nH]cc(c56)CC4N(C)C3)(C(C)C)C(=O)N12 (stereo not given) | 6.5 min
15 | C=CC(C)(C)C12CC3C(=O)NC(=Cc4cnc[nH]4)C(=O)N3C1Nc1ccccc12 (stereo not given) | 6.61 min
16 | C=CC(C)(C)C12C=C(O)C(=O)N3C(=Cc4cnc[nH]4)C(=O)NC31N(OC)c1ccccc12 (stereo not given) | 6.11 min
17 | COc1cc(=O)oc(C=CC=CC=CC(C)=CC2(C)OC(C)C(C)(O)C2O)c1C (stereo not given) | 7.23 min
18 | CC(=O)OC1CC2(C)C3(CO3)C1OC1C=C(C)C(=O)C(O)C12CO (stereo not given) | 5.49 min
19 | CC(C)(O)C1OC2CCC3(C)C(O)(CCC4Cc5c([nH]c6ccccc56)C43C)C2=CC1=O (stereo not given) | 7.81 min
20 | CC(C)C1(NC(=O)C2C=C3c4cccc5[nH]cc(c45)CC3N(C)C2)OC2(O)C3CCCN3C(=O)C(Cc3ccccc3)N2C1=O (stereo not given) | 6.55 min
21 | CC1=CC2OC3C(O)C(O)C(C)(C2(CO)CC1O)C31CO1 (stereo not given) | 3.76 min
22 | CC(=O)OCC12CC(OC(=O)CC(C)C)C(C)=CC1OC1C(O)C(O)C2(C)C12CO2 (stereo not given) | 6.52 min
23 | COc1ccc2c3c4n(c2c1)C(C=C(C)C)OOC(C)(C)CC4N1C(=O)C2CCCN2C(=O)C1(O)C3O (stereo not given) | 7.33 min

Row | SMILES | LC retention time
24 | O=c1cc(CO)occ1O | 2.6 min
25 | CC(=O)OCC12CC(OC(=O)CC(C)C)C(C)=CC1OC1C(O)C(OC(C)=O)C2(C)C12CO2 (stereo not given) | 6.78 min
26 | CC(=O)OCC12CC(O)C(C)=CC1OC1C(O)C(OC(C)=O)C2(C)C12CO2 (stereo not given) | 4.9 min
27 | COC1C(OC(=O)C=CC=CC=CC=CC(=O)O)CCC2(CO2)C1C1(C)OC1CC=C(C)C (stereo not given) | 7.52 min
28 | CC1=CC2OC3C(O)C(O)C(C)(C34CO4)C2(CO)C(O)C1=O (stereo not given) | 3.7 min
29 | CC1CCCC(=O)CCCC=Cc2cc(O)cc(O)c2C(=O)O1 (stereo not given) | 7.16 min
30 | CC1=C2C(=COC(C)C2C)C(=O)C(C(=O)O)=C1O (stereo not given) | 6.53 min
31 | CCCCC(C)C(OC(=O)CC(CC(=O)O)C(=O)O)C(CC(C)CCCCCCC(O)CC(O)C(C)N)OC(=O)CC(CC(=O)O)C(=O)O (stereo not given) | 7.19 min
32 | COc1cc2c(c3oc4cccc(O)c4c(=O)c13)C1C=COC1O2 (stereo not given) | 7.49 min
33 | CC1=CC2OC3C(O)C(O)C(C)(C2(CO)CC1OC(=O)CC(C)C)C31CO1 (stereo not given) | 6.17 min
34 | C=C1C2OC3C=C(C)C(=O)C(O)C3(CO)C1(C)CC2O (stereo not given) | 4.77 min
35 | CCCCC(C)C(OC(=O)CC(CC(=O)O)C(=O)O)C(CC(C)CC(O)CCCCCCC(O)C(C)N)OC(=O)CC(CC(=O)O)C(=O)O (stereo not given) | 6.99 min
36 | CC1=CC2c3cccc4[nH]cc(c34)CC2N(C)C1 (stereo not given) | 5.35 min
37 | COc1c(C)c2c(c(O)c1CC=C(C)CCC(=O)O)C(=O)OC2 | 6.77 min
38 | O=C1C=C2C(=CCOC2O)O1 (stereo not given) | 2.12 min
39 | COc1cc2c(c3oc(=O)c4c(c13)CCC4=O)C1(O)C=COC1O2 (stereo not given) | 5.77 min
40 | CC1=CC2OC3C(O)CC(C)(C34CO4)C2(CO)C(O)C1=O (stereo not given) | 4.26 min
41 | COCC1OC(=O)c2coc3c2C1(C)C1=C(C3=O)C2CCC(=O)C2(C)CC1OC(C)=O (stereo not given) | 6.14 min
42 | CC(C)CC1NC(=O)C(C)N(C)C(=O)CNC(=O)C(=Cc2ccccc2)N(C)C1=O (stereo not given) | 6.66 min
43 | CC(=O)OC1C(O)C2OC3C=C(C)C(=O)C(O)C3(CO)C1(C)C21CO1 (stereo not given) | 4.69 min
44 | Cc1cc(O)cc2oc(=O)c3c(O)cc(O)cc3c12 | 6.89 min
45 | COc1cc2c(c3oc(=O)c4c(c13)CCOC4=O)C1CCOC1O2 (stereo not given) | 5.8 min
